Results reported in patent publication US20200017603A1, “NOVEL USES OF PCSK9 INHIBITORS AND RELATED MEDICATIONS” (BHL PATENT HOLDINGS, LLC, priority 2016, published 2020).
Where two headings read alike, the source gives them in different places.

How the values were obtained:
[1] = Patient with chronically elevated liver enzymes and bilirubin treated with Praluent brand alirocumab; type: in vivo, human; details: middle age person
Description: A middle age person had chronically elevated AST, ALT and gamma glutamyl transferase and elevated bilirubin levels and clay colored stools. There was no viral hepatitis. […] The patient also felt less fatigued.

[2] = test system: CD81; assay: CD81 expression in vivo in PCSK9-/- mice after alirocumab; details: after administering alirocumab
Description: (§1) CD81 expression in vivo in PCSK9−/−mice and in hyperlipidemic mice expressing human PCSK9 with reduced LDLR expression (PCSK9hum/hum/LDLR+/−) were tested after administering alirocumab; no changes in total CD81 levels were observed. […] Based on conflicting data, the relevant scientific literature is currently considered inadequate to conclusively address the potential impact of alirocumab on HCV infectivity. It should be noted that increased cell-surface LDLR has also been postulated to modulate HCV infectivity; statins, like alirocumab, increase cell-surface LDLR.

[3] = test system: CD81; assay: CD81 expression in vivo in hyperlipidemic PCSK9hum/hum/LDLR+/- mice after alirocumab; details: hyperlipidemic mice expressing human PCSK9 with reduced LDLR expression (PCSK9hum/hum/LDLR+/-), after administering alirocumab
Description: as §1

[4] = test system: HCV; assay: HCV infectivity and replication kinetics in vitro with extracellular PCSK9 in presence/absence of alirocumab; type: cell-based; details: addition of extracellular PCSK9 in the presence/absence of alirocumab
[5] = monkeys, 3-month, co-administered with atorvastatin at doses producing modest ALT increases; cited from earlier work
[6] = humans administered alirocumab; cited from earlier work
[7] = cited from earlier work
[8] = monkey, cited from earlier work
[9] = monkey, in vivo; cited from earlier work
[10] = monkey, in vivo; cited from earlier work; remark: listed apart in the source
[11] = rat, in vivo; cited from earlier work
[12] = rat, in vivo; cited from earlier work; remark: listed apart in the source
[13] = monkey, in vivo; cited from earlier work; remark: listed apart in the source
[14] = chronically elevated, no viral hepatitis, after treatment for 1-2 months

For alirocumab, the ALT [1, 14] was “returned to normal”, the AST [1, 14] was “returned to normal” and the gamma glutamyl transferase [1, 14] was “returned to normal”. The bilirubin levels ([1]; elevated, after treatment for 1-2 months) was “returned to normal”, the fatigue ([1]; after treatment) was “less fatigued” and the clay colored stools ([1]; after treatment for 1-2 months) was “became normal”. For the same substance, the “total CD81 levels” value [2] was “no changes”, the “total CD81 levels” value [3] was “no changes” and the “effects on HCV infectivity” value [4] was “No effects”. The “effects on HCV replication kinetics” value [4] was “No effects”, the liver toxicity [5] was “not exacerbated” and the HDL-C [6] was “not reduced”. For the same substance, the “sinusoidal cell defects in the liver” value ([7]; rat, in vivo) was “sinusoidal cell defects were observed”, the HDL ([7]; rats administered alirocumab) was “low HDL” and the “sinusoidal cell defects in the liver (this phenomenon)” value ([8]; in vivo) was “not observed”. The HDL-C levels [8] was “greatly reduced”, the “effects on T-cell dependent antibody response” value [9] was “no effects” and the “effects on cytotoxic T-cell activity” value [9] was “no effects”. The “effects on immune cell populations” value [9] was “no effects”, the “effects on natural killer cell activity” value [9] was “no effects” and the imbalances for infections [10] was “no imbalances”. The imbalances for infections [11] was “no imbalances”, the “alirocumab-related effects on peripheral neurons” value [12] was “No significant alirocumab-related effects” and the “alirocumab-related effects on peripheral neurons” value [13] was “No significant alirocumab-related effects”.
